From patent US20150105252A1, “SUBSTITUTED PYRAZOLES AS HERBICIDES” (E I DU PONT DE NEMOURS AND COMPANY, priority 2013, published 2015)

Key:
field bindweed = experiment: Test F preemergence; type: in vivo, Convolvulus arvensis
Text: (§1) Seeds of plant species selected from corn (Zea mays), soybean (Glycine max), velvetleaf (Abutilon theophrasti), lambsquarters (Chenopodium album), wild poinsettia (Euphorbia heterophylla), pigweed, palmer (palmer pigweed, Amaranthus palmeri), common waterhemp (Amaranthus rudis), surinam grass (Brachiaria decumbens), large crabgrass (Digitaria sanguinalis), crabgrass, Brazil (Brazilian crabgrass, Digitaria horizontalis), fall panicum (Panicum dichotomiflorum), giant foxtail (Setaria faberii), green foxtail (Setaria viridis), goosegrass (Eleusine indica), johnsongrass (Sorghum halepense), common ragweed (Ambrosia elation), barnyardgrass (Echinochloa crus-galli), southern sandbur (Cenchrus echinatus), arrowleaf sida (Sida rhombifolia), Italian ryegrass (Lolium multiflorum), dayflower, VA (Virginia (VA) dayflower, Commelina virginica), field bindweed (Convolvulus arvensis), cocklebur (common cocklebur, Xanthium strumarium), morningglory (Ipomoea coccinea), nightshade (eastern black nightshade, Solanum ptycanthum), kochia (Kochia scoparia), yellow nutsedge (Cyperus esculentus), and hairy beggarticks (Bidens pilosa), were planted into a silt loam soil and treated preemergence with test chemicals formulated in a non-phytotoxic solvent mixture which included a surfactant.
(§2) At the same time, plants from these crop and weed species and also horseweed (Canada horseweed, Conyza canadensis), smartweed (ladysthumb smartweed, Polygonum persicaria), waterhemp_RES1, (ALS & Triazine resistant common waterhemp, Amaranthus rudis), and waterhemp_RES2, (ALS & HPPD resistant common waterhemp, Amaranthus rudis) were treated with postemergence applications of test chemicals formulated in the same manner. Plants ranged in height from 2 to 18 cm for postemergence treatments (1- to 4-leaf stage). Treated plants and controls were maintained in a greenhouse for 14 to 21 days, after which time all species were compared to controls and visually evaluated. Plant response ratings, summarized in Table F, are based on a scale of 0 to 100 where 0 is no effect and 100 is complete control. A dash (-) response means no test result.

corn = experiment: Test F preemergence; type: in vivo, Zea mays
Text: as §1, §2

crabgrass, Brazil = experiment: Test F preemergence; type: in vivo, Digitaria horizontalis
Text: as §1, §2

Italian ryegrass = experiment: Test F preemergence; type: in vivo, Lolium multiflorum
Text: as §1, §2

galium = experiment: Test A postemergence; type: in vivo, Galium aparine
Outline: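 Injury readout: eye-scored versus untreated controls, 0 to 100. Exposure period: ~10 days, greenhouse. Application: soil-directed spray over sown seed (pre) or spray on seedlings 2–10 cm tall with one or two leaves (post), compound carried in non-phytotoxic solvent including surfactant.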

cocklebur = experiment: Test C postemergence; type: in vivo, Xanthium strumarium; details: for Cocklebur plant response rating: scale 0 to 100
Text: (§3) Seeds of plant species selected from blackgrass (Alopecurus myosuroides), ryegrass, Italian (Italian ryegrass, Lolium multiflorum), wheat (winter wheat, Triticum aestivum), galium (catchweed bedstraw, Galium aparine), corn (Zea mays), crabgrass, large (large crabgrass, Digitaria sanguinalis), foxtail, giant (giant foxtail, Setaria faberii), johnsongrass (Sorghum halepense), lambsquarters (Chenopodium album), morningglory (Ipomoea coccinea), nutsedge, yellow (yellow nutsedge, Cyperus esculentus), pigweed (redroot pigweed, Amaranthus retroflexus), ragweed (common ragweed, Ambrosia elation), soybean (Glycine max), barnyardgrass (Echinochloa crus-galli), oilseed rape (Brassica napus), waterhemp (common waterhemp, Amaranthus rudis), oat, wild (wild oat, Avena fatua), kochia (Kochia scoparia), Surinam grass (Brachiaria decumbens), foxtail, green (green foxtail, Setaria viridis), goosegrass (Eleusine indica), bromegrass, downy (downy bromegrass, Bromus tectorum), nightshade (eastern black nightshade, Solanum ptycanthum), cocklebur (common cocklebur, Xanthium strumarium), cupgrass, woolly (woolly cupgrass, Eriochloa villosa), bermudagrass (Cynodon dactylon), sunflower, (common oilseed sunflower, Helianthus annuus), Russian thistle (Salsola kali), and velvetleaf (Abutilon theophrasti) were planted into a blend of loam soil and sand and treated preemergence with test chemicals formulated in a non-phytotoxic solvent mixture which included a surfactant.
(§4) At the same time, plants selected from these crop and weed species and also chickweed (common chickweed, Stellaria media), canarygrass (littleseed canarygrass, Phalaris minor), and deadnettle (henbit deadnettle, Lamium amplexicaule), were planted in pots containing Redi-Earth® planting medium (Scotts Company, 14111 Scottslawn Road, Marysville, Ohio 43041) comprising spaghnum peat moss, vermiculite, wetting agent and starter nutrients and treated with postemergence applications of test chemicals formulated in the same manner. Plants ranged in height from 2 to 18 cm (1- to 4-leaf stage) for postemergence treatments. Treated plants and controls were maintained in a greenhouse for 13 to 15 days, after which time all species were compared to controls and visually evaluated. Plant response ratings, summarized in Table C, are based on a scale of 0 to 100 where 0 is no effect and 100 is complete control. A dash (-) response means no test result.

barley = experiment: Test C postemergence; type: in vivo, Hordeum vulgare
bermudagrass = experiment: Test C postemergence; type: in vivo, Cynodon dactylon; details: for Bermudagrass plant response rating: scale 0 to 100
Text: as §3, §4

cupgrass, woolly = experiment: Test C postemergence; type: in vivo, Eriochloa villosa; details: for Cupgrass, Woolly plant response rating: scale 0 to 100
Text: as §3, §4

[1] = Preemergence, 31 g ai/ha, scale 0 to 100
[2] = Preemergence, 62 g ai/ha, scale 0 to 100
[3] = Preemergence, 125 g ai/ha, scale 0 to 100
[4] = preemergence, 8 g ai/ha, scale 0 to 100, 100 is complete control
[5] = preemergence, 16 g ai/ha, scale 0 to 100, 100 is complete control
[6] = Preemergence, 16 g ai/ha, scale 0 to 100
[7] = Preemergence, 250 g ai/ha, scale 0 to 100
[8] = Postemergence, 500 g ai/ha, 0 to 100 scale (0 no effect, 100 complete control)
[9] = postemergence, 125 g ai/ha, about 10 days, visual rating on 0 to 100 scale (0 no effect, 100 complete control)
[10] = postemergence, 250 g ai/ha, scale 0 to 100 (0 no effect, 100 complete control)
[11] = postemergence, 125 g ai/ha, scale 0 to 100, 0 no effect, 100 complete control
[12] = 250 g ai/ha, scale 0 to 100 (0 no effect, 100 complete control)
[13] = postemergence, 62 g ai/ha, scale 0 to 100, 0 no effect, 100 complete control

CCc1cc(-c2ccc(C(F)(F)F)cc2)nn1Cc1ccnc(C(F)(F)F)c1 [Compound 110]
Plant response rating, Field Bindweed (field bindweed; [1]): 30
Plant response rating, Field Bindweed (field bindweed; [2]): 50
Plant response rating, Field Bindweed (field bindweed; [3]): 90
Plant response rating, Field Bindweed (field bindweed; [4]): 0
Plant response rating, Field Bindweed (field bindweed; [5]): 10
Plant response rating, Corn (corn; [1]): 0
Plant response rating, Corn (corn; [2]): 0
Plant response rating, Corn (corn; [3]): 15
Plant response rating, Corn (corn; [4]): 0
Plant response rating, Corn (corn; [5]): 0
Plant response rating, Crabgrass, Brazil (crabgrass, Brazil; [1]): 100
Plant response rating, Crabgrass, Brazil (crabgrass, Brazil; [2]): 100
Plant response rating, Crabgrass, Brazil (crabgrass, Brazil; [3]): 100
Plant response rating, Crabgrass, Brazil (crabgrass, Brazil; [4]): 50
Plant response rating, Crabgrass, Brazil (crabgrass, Brazil; [5]): 70
Plant response rating, Italian Ryegrass (Italian ryegrass; [1]): 20
Plant response rating, Italian Ryegrass (Italian ryegrass; [2]): 20
Plant response rating, Italian Ryegrass (Italian ryegrass; [3]): 60
Plant response rating, Italian Ryegrass (Italian ryegrass; [4]): 0
Plant response rating, Italian Ryegrass (Italian ryegrass; [5]): 0

CCCc1cc(C(=O)NC(C)C)nn1Cc1cc(C(F)(F)F)nn1C [Compound 201]
Plant response rating, Field Bindweed (field bindweed; [6]): 15
Plant response rating, Field Bindweed (field bindweed; [2]): 20
Plant response rating, Field Bindweed (field bindweed; [3]): 75
Plant response rating, Field Bindweed (field bindweed; [7]): 100
Plant response rating, Field Bindweed (field bindweed; [5]): 0
Plant response rating, Corn (corn; [2]): 10
Plant response rating, Corn (corn; [3]): 20
Plant response rating, Corn (corn; [7]): 60
Plant response rating, Corn (corn; [5]): 0
Plant response rating, Crabgrass, Brazil (crabgrass, Brazil; [6]): 75
Plant response rating, Crabgrass, Brazil (crabgrass, Brazil; [2]): 95
Plant response rating, Crabgrass, Brazil (crabgrass, Brazil; [3]): 100
Plant response rating, Crabgrass, Brazil (crabgrass, Brazil; [7]): 100
Plant response rating, Crabgrass, Brazil (crabgrass, Brazil; [5]): 0
Plant response rating, Italian Ryegrass (Italian ryegrass; [2]): 30
Plant response rating, Italian Ryegrass (Italian ryegrass; [3]): 75
Plant response rating, Italian Ryegrass (Italian ryegrass; [7]): 75
Plant response rating, Italian Ryegrass (Italian ryegrass; [5]): 0

CCc1cc(C(=O)NOC(C)C)nn1Cc1ccnc(OC(F)F)c1 [Compound 126]
Galium plant response rating (galium; [8]): 90
Galium plant response rating (galium; [9]): 90

CCc1cc(C(=O)NCC(F)(F)F)nn1Cc1ccnc(Br)c1 [Compound 224]
Plant response rating, Field Bindweed (field bindweed; [2]): 65
Plant response rating, Field Bindweed (field bindweed; [3]): 90
Plant response rating, Field Bindweed (field bindweed; [7]): 90
Plant response rating, Corn (corn; [2]): 0
Plant response rating, Corn (corn; [3]): 20
Plant response rating, Corn (corn; [7]): 40
Plant response rating, Crabgrass, Brazil (crabgrass, Brazil; [2]): 98
Plant response rating, Crabgrass, Brazil (crabgrass, Brazil; [3]): 100
Plant response rating, Crabgrass, Brazil (crabgrass, Brazil; [7]): 100
Plant response rating, Italian Ryegrass (Italian ryegrass; [2]): 20
Plant response rating, Italian Ryegrass (Italian ryegrass; [3]): 0
Plant response rating, Italian Ryegrass (Italian ryegrass; [7]): 60

CCOc1cc(C(=O)NCC(F)(F)F)nn1Cc1ccnc(OC(F)F)c1 [Compound 128]
Galium plant response rating (galium; [8]): 100
Galium plant response rating (galium; [9]): 90

CCONC(=O)c1cc(CC)n(Cc2cccc(OC(F)(F)F)c2)n1 [Compound 72]
Cocklebur plant response rating (cocklebur; Postemergence, 31 g ai/ha): 0
Cocklebur plant response rating (cocklebur; postemergence, 62 g ai/ha): 0
Plant response rating, Cocklebur (cocklebur; [10]): 15
Plant response rating, Cocklebur (cocklebur; [11]): 5
Plant response rating, Barley (barley; [12]): 10
Bermudagrass plant response rating (bermudagrass; Postemergence, 31 g ai/ha): 0
Bermudagrass plant response rating (bermudagrass; postemergence, 62 g ai/ha): 0
Plant response rating, Bermudagrass (bermudagrass; [10]): 20
Plant response rating, Bermudagrass (bermudagrass; [11]): 15
Cupgrass, Woolly plant response rating (cupgrass, woolly; Postemergence, 31 g ai/ha): 5
Cupgrass, Woolly plant response rating (cupgrass, woolly; postemergence, 62 g ai/ha): 10
Plant response rating, Cupgrass, Woolly (cupgrass, woolly; [10]): 15
Plant response rating, Cupgrass, Woolly (cupgrass, woolly; [11]): 10

CCc1cc(C(=O)NCC(F)(F)F)nn1Cc1cccc(OC(F)(F)F)c1 [Compound 20]
Cocklebur plant response rating (cocklebur; Postemergence, 31 g ai/ha): 20
Plant response rating, Cocklebur (cocklebur; [10]): 40
Plant response rating, Cocklebur (cocklebur; [13]): 35
Plant response rating, Cocklebur (cocklebur; [11]): 35
Plant response rating, Barley (barley; 125 g ai/ha, scale 0 to 100, 0 no effect, 100 complete control): 30
Plant response rating, Barley (barley; [12]): 30
Bermudagrass plant response rating (bermudagrass; Postemergence, 31 g ai/ha): 5
Plant response rating, Bermudagrass (bermudagrass; [10]): 45
Plant response rating, Bermudagrass (bermudagrass; [13]): 5
Plant response rating, Bermudagrass (bermudagrass; [11]): 15
Cupgrass, Woolly plant response rating (cupgrass, woolly; Postemergence, 31 g ai/ha): 5
Plant response rating, Cupgrass, Woolly (cupgrass, woolly; [10]): 15
Plant response rating, Cupgrass, Woolly (cupgrass, woolly; [13]): 10
Plant response rating, Cupgrass, Woolly (cupgrass, woolly; [11]): 15
